From ChEMBL document CHEMBL1201862, “PubChem BioAssay data set” (2004)
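Exposure lasted 48 hours, with cells grown in 96-well plates and compounds tested at five concentrations. Here, GI50 denotes the concentration required for 50% inhibition of growth.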 Calls of active or inactive are those of the source. Rule as the data show it: active = GI50 up to about 1.1 µM and inactive = higher.

Experiments:
Test in all cases: growth of human tumour cells (NCI), 48 h
[1] = test system: A498
[2] = test system: A549
[3] = test system: COLO 205
[4] = test system: DLD-1
[5] = test system: EKVX
[6] = test system: HCT-15
[7] = test system: LOX IMVI
[8] = test system: M14
[9] = test system: NCI-H23
[10] = test system: OVCAR-4
[11] = test system: OVCAR-5
[12] = test system: OVCAR-8
[13] = test system: RXF 393
[14] = test system: SK-MEL-28
[15] = test system: SN12C
[16] = test system: SNB-75
[17] = test system: SR
[18] = test system: U-251
[19] = test system: NCI/ADR-RES
[20] = test system: T47D

| Compound | GI50 [1] | GI50 [2] | GI50 [3] | GI50 [4] | GI50 [5] | GI50 [6] [µM] | GI50 [7] | GI50 [8] | GI50 [9] | GI50 [10] | GI50 [11] | GI50 [12] | GI50 [13] | GI50 [14] | GI50 [15] | GI50 [16] | GI50 [17] | GI50 [18] | GI50 [19] | GI50 [20] |
| --- | --- | --- | --- | --- | --- | --- | --- | --- | --- | --- | --- | --- | --- | --- | --- | --- | --- | --- | --- | --- |
| CC(=O)C1=C(C)Cn2c(=O)c3ccccc3c(=O)n2C1 | 82 µM (inactive) | > 100 µM (inactive) | > 100 µM (inactive) | > 100 µM (inactive) | > 100 µM (inactive) | > 100 | > 100 µM (inactive) | > 100 µM (inactive) | > 100 µM (inactive) | > 100 µM (inactive) | > 100 µM (inactive) | > 100 µM (inactive) | > 100 µM (inactive) | > 100 µM (inactive) | > 100 µM (inactive) | > 100 µM (inactive) | > 100 µM (inactive) | > 100 µM (inactive) |  |  |
| COC1=C(Br)C(=O)c2nc(C)ccc2C1=O | 22 µM (inactive) | 20.3 µM (inactive) | 12.1 µM (inactive) | 5.33 µM (inactive) | 19.3 µM (inactive) | 14.1 | 8.39 µM (inactive) | 15 µM (inactive) | 12.7 µM (inactive) | 13.3 µM (inactive) | 20.4 µM (inactive) | 6.73 µM (inactive) | 11.2 µM (inactive) | 18.4 µM (inactive) | 15.7 µM (inactive) | 19.2 µM (inactive) | 3.56 µM (inactive) | 15.1 µM (inactive) |  |  |
| Cc1cc(NC(=O)NC(=O)c2ccccc2N(C)C)ccc1Oc1ncc(Br)cn1 | 0.29 µM (active) | 0.705 µM (active) | 0.78 µM (active) | 0.373 µM (active) | 1.96 µM (inactive) | 0.202 | 0.369 µM (active) | 0.957 µM (active) | 1.17 µM (inactive) | 6.68 µM (inactive) | 8.11 µM (inactive) | 1.1 µM (active) | 0.656 µM (active) | 0.64 µM (active) | 1.74 µM (inactive) | 0.135 µM (active) | 0.0541 µM (active) | 0.497 µM (active) | 0.361 µM (active) | 1.61 µM (inactive) |
| N#C/C(=C\c1c[nH]c2ccccc12)C(=O)c1ccc(O)c(O)c1 | 41.6 µM (inactive) | 26.1 µM (inactive) | 32.7 µM (inactive) | 47.9 µM (inactive) | 34.8 µM (inactive) | 22.9 | 23.7 µM (inactive) | 38.5 µM (inactive) | 45.8 µM (inactive) | 27.2 µM (inactive) | 33 µM (inactive) | 38.5 µM (inactive) | 38.9 µM (inactive) | 47.3 µM (inactive) | 23.1 µM (inactive) | 41 µM (inactive) | 9.82 µM (inactive) | 20.4 µM (inactive) | 20.5 µM (inactive) | 31 µM (inactive) |
